Measured values as given in the supplement of paper PMC10307832.

Tests used:
Test in all cases: relative viability (nuclei count vs DMSO), 5 days (fraction); higher = more cells survive
201T = test system: 201T
Outline: (§1)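 Lung cancer cell lines were pin-tool dosed in 1536-well plates on the day after seeding, with either a lone drug or a fixed anchor-drug dose plus five library-drug doses (not always all listed) in √10 steps. Nuclei were counted on 4× images after 5 days. Relative viability is the ratio of treated-well to vehicle-well nuclei counts, with each value a median of duplicate plates.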

BEN = test system: BEN
Outline: as §1

COR-L 105 = test system: COR-L 105
Outline: as §1

EKVX = test system: EKVX
Outline: as §1

EPLC-272H = test system: EPLC-272H
Outline: as §1

H3255 = test system: H3255
Outline: as §1

HCC-44 = test system: HCC-44
Outline: as §1

HCC-827 = test system: HCC-827
Outline: as §1

HOP-62 = test system: HOP-62
Outline: as §1

LCLC-97TM1 = test system: LCLC-97TM1
Outline: as §1

LOU-NH91 = test system: LOU-NH91
Outline: as §1

LU99A = test system: LU99A
Outline: as §1

NCI-H1395 = test system: NCI-H1395
Outline: as §1

NCI-H1437 = test system: NCI-H1437
Outline: as §1

NCI-H1666 = test system: NCI-H1666
Outline: as §1

NCI-H1975 = test system: NCI-H1975
Outline: as §1

NCI-H2085 = test system: NCI-H2085
Outline: as §1

NCI-H2087 = test system: NCI-H2087
Outline: as §1

NCI-H2342 = test system: NCI-H2342
Outline: as §1

NCI-H358 = test system: NCI-H358
Outline: as §1

NCI-H647 = test system: NCI-H647
Outline: as §1

PC-3 [JPC-3] = test system: PC-3 [JPC-3]
Outline: as §1

SW 1573 = test system: SW 1573
Outline: as §1

CC1(C)CCC(c2ccc(Cl)cc2)=C(CN2CCN(c3ccc(C(=O)NS(=O)(=O)c4ccc(N[C@H](CCN5CCOCC5)CSc5ccccc5)c(S(=O)(=O)C(F)(F)F)c4)cc3)CC2)C1 [Navitoclax] + Nc1nc2[nH]cc(CCc3ccc(C(=O)N[C@@H](CCC(=O)O)C(=O)O)cc3)c2c(=O)[nH]1 [Pemetrexed] (partner 0.2 µM)
relative viability (201T; first compound 0.005 µM): 0.299 | relative viability (201T; first compound 0.01581 µM): 0.31 | relative viability (201T; first compound 0.05 µM): 0.34 | relative viability (201T; first compound 0.1581 µM): 0.321 | relative viability (201T; first compound 0.5 µM): 0.357 | relative viability (BEN; first compound 0.005 µM): 0.781 | relative viability (BEN; first compound 0.01581 µM): 0.841 | relative viability (BEN; first compound 0.05 µM): 0.74 | relative viability (BEN; first compound 0.1581 µM): 0.803 | relative viability (BEN; first compound 0.5 µM): 0.418 | relative viability (COR-L 105; first compound 0.005 µM): 0.979 | relative viability (COR-L 105; first compound 0.01581 µM): 1.35 | relative viability (COR-L 105; first compound 0.05 µM): 0.921 | relative viability (COR-L 105; first compound 0.1581 µM): 1.13 | relative viability (COR-L 105; first compound 0.5 µM): 1.17 | relative viability (EKVX; first compound 0.005 µM): 0.433 | relative viability (EKVX; first compound 0.01581 µM): 0.389 | relative viability (EKVX; first compound 0.05 µM): 0.4 | relative viability (EKVX; first compound 0.1581 µM): 0.387 | relative viability (EKVX; first compound 0.5 µM): 0.366 | relative viability (EPLC-272H; first compound 0.005 µM): 0.312 | relative viability (EPLC-272H; first compound 0.01581 µM): 0.268 | relative viability (EPLC-272H; first compound 0.05 µM): 0.347 | relative viability (EPLC-272H; first compound 0.1581 µM): 0.354 | relative viability (EPLC-272H; first compound 0.5 µM): 0.343 | relative viability (H3255; first compound 0.005 µM): 0.664 | relative viability (H3255; first compound 0.01581 µM): 0.648 | relative viability (H3255; first compound 0.05 µM): 0.571 | relative viability (H3255; first compound 0.1581 µM): 0.581 | relative viability (H3255; first compound 0.5 µM): 0.545 | relative viability (HCC-44; first compound 0.005 µM): 0.633 | relative viability (HCC-44; first compound 0.01581 µM): 0.65 | relative viability (HCC-44; first compound 0.05 µM): 0.625 | relative viability (HCC-44; first compound 0.1581 µM): 0.603 | relative viability (HCC-44; first compound 0.5 µM): 0.558 | relative viability (HCC-827; first compound 0.005 µM): 0.27 | relative viability (HCC-827; first compound 0.01581 µM): 0.261 | relative viability (HCC-827; first compound 0.05 µM): 0.252 | relative viability (HCC-827; first compound 0.1581 µM): 0.23 | relative viability (HCC-827; first compound 0.5 µM): 0.258 | relative viability (HOP-62; first compound 0.005 µM): 0.326 | relative viability (HOP-62; first compound 0.01581 µM): 0.299 | relative viability (HOP-62; first compound 0.05 µM): 0.323 | relative viability (HOP-62; first compound 0.1581 µM): 0.27 | relative viability (HOP-62; first compound 0.5 µM): 0.27 | relative viability (LCLC-97TM1; first compound 0.005 µM): 0.182 | relative viability (LCLC-97TM1; first compound 0.01581 µM): 0.191 | relative viability (LCLC-97TM1; first compound 0.05 µM): 0.158 | relative viability (LCLC-97TM1; first compound 0.1581 µM): 0.156 | relative viability (LCLC-97TM1; first compound 0.5 µM): 0.204 | relative viability (LOU-NH91; first compound 0.005 µM): 0.308 | relative viability (LOU-NH91; first compound 0.01581 µM): 0.304 | relative viability (LOU-NH91; first compound 0.05 µM): 0.26 | relative viability (LOU-NH91; first compound 0.1581 µM): 0.285 | relative viability (LOU-NH91; first compound 0.5 µM): 0.219 | relative viability (LU99A; first compound 0.005 µM): 0.202 | relative viability (LU99A; first compound 0.01581 µM): 0.205 | relative viability (LU99A; first compound 0.1581 µM): 0.196 | relative viability (LU99A; first compound 0.5 µM): 0.167 | relative viability (NCI-H1395; first compound 0.005 µM): 0.763 | relative viability (NCI-H1395; first compound 0.01581 µM): 0.853 | relative viability (NCI-H1395; first compound 0.05 µM): 0.94 | relative viability (NCI-H1395; first compound 0.1581 µM): 0.86 | relative viability (NCI-H1395; first compound 0.5 µM): 0.913 | relative viability (NCI-H1437; first compound 0.005 µM): 0.287 | relative viability (NCI-H1437; first compound 0.01581 µM): 0.336 | relative viability (NCI-H1437; first compound 0.05 µM): 0.282 | relative viability (NCI-H1437; first compound 0.1581 µM): 0.311 | relative viability (NCI-H1437; first compound 0.5 µM): 0.356 | relative viability (NCI-H1666; first compound 0.005 µM): 0.867 | relative viability (NCI-H1666; first compound 0.01581 µM): 0.964 | relative viability (NCI-H1666; first compound 0.05 µM): 0.836 | relative viability (NCI-H1666; first compound 0.1581 µM): 0.831 | relative viability (NCI-H1666; first compound 0.5 µM): 0.966 | relative viability (NCI-H1975; first compound 0.005 µM): 0.292 | relative viability (NCI-H1975; first compound 0.01581 µM): 0.312 | relative viability (NCI-H1975; first compound 0.05 µM): 0.343 | relative viability (NCI-H1975; first compound 0.1581 µM): 0.301 | relative viability (NCI-H1975; first compound 0.5 µM): 0.299 | relative viability (NCI-H2085; first compound 0.005 µM): 0.812 | relative viability (NCI-H2085; first compound 0.01581 µM): 1.2 | relative viability (NCI-H2085; first compound 0.05 µM): 0.852 | relative viability (NCI-H2085; first compound 0.1581 µM): 0.931 | relative viability (NCI-H2085; first compound 0.5 µM): 0.894 | relative viability (NCI-H2087; first compound 0.005 µM): 0.689 | relative viability (NCI-H2087; first compound 0.01581 µM): 0.697 | relative viability (NCI-H2087; first compound 0.1581 µM): 0.686 | relative viability (NCI-H2087; first compound 0.5 µM): 0.675 | relative viability (NCI-H2342; first compound 0.005 µM): 0.818 | relative viability (NCI-H2342; first compound 0.01581 µM): 0.81 | relative viability (NCI-H2342; first compound 0.05 µM): 0.805 | relative viability (NCI-H2342; first compound 0.1581 µM): 0.719 | relative viability (NCI-H2342; first compound 0.5 µM): 0.763 | relative viability (NCI-H358; first compound 0.005 µM): 0.17 | relative viability (NCI-H358; first compound 0.01581 µM): 0.173 | relative viability (NCI-H358; first compound 0.05 µM): 0.167 | relative viability (NCI-H358; first compound 0.1581 µM): 0.165 | relative viability (NCI-H358; first compound 0.5 µM): 0.187 | relative viability (NCI-H647; first compound 0.005 µM): 0.166 | relative viability (NCI-H647; first compound 0.01581 µM): 0.175 | relative viability (NCI-H647; first compound 0.05 µM): 0.163 | relative viability (NCI-H647; first compound 0.1581 µM): 0.14 | relative viability (NCI-H647; first compound 0.5 µM): 0.128 | relative viability (PC-3 [JPC-3]; first compound 0.005 µM): 1.12 | relative viability (PC-3 [JPC-3]; first compound 0.01581 µM): 1.26 | relative viability (PC-3 [JPC-3]; first compound 0.05 µM): 0.974 | relative viability (PC-3 [JPC-3]; first compound 0.1581 µM): 1.02 | relative viability (PC-3 [JPC-3]; first compound 0.5 µM): 0.754 | relative viability (SW 1573; first compound 0.005 µM): 0.925 | relative viability (SW 1573; first compound 0.01581 µM): 0.773 | relative viability (SW 1573; first compound 0.05 µM): 0.787 | relative viability (SW 1573; first compound 0.1581 µM): 0.751 | relative viability (SW 1573; first compound 0.5 µM): 0.801
